Results as given in patent publication US9796672B2, “Isoindoline compositions and methods for treating neurodegenerative disease” (Cognition Therapeutics, Inc., priority 2014, dated 2017).
pEC50, pIC50, pKi: −log10 of the molar value.

Tests used:
[1] = system: Abeta oligomer-induced membrane trafficking deficits in primary hippocampal neurons; test: Membrane trafficking/exocytosis (MTT) assay; settings: read-out: Membrane Trafficking EC50; compound dosed prior to Abeta oligomer addition
potassium channel hERG = potassium channel hERG (Homo sapiens (Human), UniProt Q12809); test: In vitro toxicity, hERG inhibition; type: biochemical
Chain of potassium channel hERG (Q12809 whole entry): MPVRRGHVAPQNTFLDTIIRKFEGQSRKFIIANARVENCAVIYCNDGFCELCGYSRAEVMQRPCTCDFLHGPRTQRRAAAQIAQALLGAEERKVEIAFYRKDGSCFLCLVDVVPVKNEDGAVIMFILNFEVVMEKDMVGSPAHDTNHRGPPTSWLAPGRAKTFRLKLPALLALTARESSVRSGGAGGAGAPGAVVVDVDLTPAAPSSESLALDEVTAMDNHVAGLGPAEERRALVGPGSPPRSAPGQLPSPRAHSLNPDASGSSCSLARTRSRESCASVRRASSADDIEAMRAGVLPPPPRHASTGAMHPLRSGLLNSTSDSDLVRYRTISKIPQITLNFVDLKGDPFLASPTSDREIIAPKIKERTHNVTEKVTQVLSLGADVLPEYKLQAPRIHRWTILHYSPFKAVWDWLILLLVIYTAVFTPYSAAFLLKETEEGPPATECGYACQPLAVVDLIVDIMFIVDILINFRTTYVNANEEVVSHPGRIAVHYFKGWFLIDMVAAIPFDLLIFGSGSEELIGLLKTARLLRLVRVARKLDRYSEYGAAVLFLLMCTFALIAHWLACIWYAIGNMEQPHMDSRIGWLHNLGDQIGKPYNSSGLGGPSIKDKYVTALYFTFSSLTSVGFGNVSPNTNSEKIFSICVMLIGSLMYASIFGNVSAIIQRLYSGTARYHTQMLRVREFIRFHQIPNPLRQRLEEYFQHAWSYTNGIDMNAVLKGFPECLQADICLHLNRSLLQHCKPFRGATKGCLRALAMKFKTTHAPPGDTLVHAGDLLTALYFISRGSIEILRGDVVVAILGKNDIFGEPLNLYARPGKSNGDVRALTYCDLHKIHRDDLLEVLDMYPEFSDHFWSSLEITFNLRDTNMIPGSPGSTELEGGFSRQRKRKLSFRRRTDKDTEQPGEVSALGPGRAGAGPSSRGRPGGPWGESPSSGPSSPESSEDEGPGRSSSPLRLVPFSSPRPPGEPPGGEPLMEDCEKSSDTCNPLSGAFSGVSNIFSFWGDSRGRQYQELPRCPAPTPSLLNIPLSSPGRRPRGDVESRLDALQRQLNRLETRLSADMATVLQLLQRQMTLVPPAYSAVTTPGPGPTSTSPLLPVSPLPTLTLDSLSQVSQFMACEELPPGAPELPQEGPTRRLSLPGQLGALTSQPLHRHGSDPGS
Experimental: In vitro toxicity for Test Compounds is tested in a number of standard assays.

[2] = Mouse liver microsome (MLM) stability; type: in vitro ADME; settings: mouse, microsomes
Experimental: A first pharmacokinetic study was performed in microsomes of mice mouse liver microsomes, MLM) by a commercial contract research organization. The studies were performed according to Obach, R. S et al. (1997) J. Pharmacol. Exp. Ther., 283: 46-58, which is incorporated herein by reference.

neuronal cultures = test: Functional neuronal phenotype in neuronal cultures; type: cell-based; set-up: key: Antagonist: antagonists (block Abeta signaling); Agonist: agonists (block Abeta signaling with U-shaped dose-response curve and toxicity at high doses); Inactive: inactive (no effect in neuronal cultures)
Experimental: Neuronal cultures are treated with various concentrations of sigma compounds for 24 hours and nuclear intensity compared to vehicle is measured.

Sigma-2 receptor = Sigma-2 receptor competitive radioligand binding assay; set-up: species or system rat; settings: read-out: Sigma-2 Receptor Affinity, Ki
Experimental: Radioligand binding assays for Sigma-1 receptors and Sigma-2 receptors were carried out by a commercial contract research organization. For Sigma-1 binding, various concentrations of test compounds from 100 μM to 1 nM were used to displace 8 nM [^3H](+)pentazocine from endogenous receptors on Jurkat cell membranes (Ganapathy M E et al. 1991, J Pharmacol. Exp. Ther. 289:251-260). 10 μM Haloperidol was used to define non-specific binding. For Sigma-2 receptors various concentrations of test compounds from 100 μM to 1 nM were used to displace 5 nM [^3H] […] (Bowen W D, et al. 1993, Mol. Neuropharmcol 3:117-126). 10 μM Haloperidol was used to define non-specific binding. Reactions were terminated by rapid filtration through Whatman GF/C filters using a Brandel 12R cell harvester followed by two washes with ice-cold buffer. Radioactivity on the dried filter discs was measured using a liquid scintillation analyzer (Tri-Carb 2900TR; PerkinElmer Life and Analytical Sciences). The displacement curves were plotted and the Ki values of the test ligands for the receptor subtypes were determined using GraphPad Prism (GraphPad Software Inc., San Diego, Calif.). The percentage specific binding was determined by dividing the difference between total bound (disintegrations per minute) and nonspecific bound (disintegrations per minute) by the total bound (disintegrations per minute).
The affinity of candidate sigma-2 ligand compounds at sigma-1 and sigma-2 receptors was also determined by displacement of different known labeled sigma-2 or sigma-1 ligands. Filtration assays were conducted according the previously published procedure (Xu, et al., 2005). Test compounds were dissolved in N,N-Dimethylformamide (DMF), dimethyl sulfoxide (DMSO) or ethanol and then diluted in 50 mM Tris-HCl pH 7.4 buffer containing 150 mM NaCl and 100 mM EDTA. Membrane homogenates were made from guinea pig brain for sigma-1 binding assay and rat liver for sigma-2 binding assay. Membrane homogenates were diluted with 50 mM Tris-HCl buffer, pH 8.0 and incubated at 25° C. in a total volume of 150 uL in 96 well plates with the radioligand and test compounds with concentrations ranging from 0.1 nM to 10 uM. After incubation was completed, the reactions were terminated by the addition of 150 uL of ice-cold wash buffer (10 mM Tris HCl, 150 mM NaCl, pH 7.4) using a 96 channel transfer pipette (Fisher Scientific, Pittsburgh, Pa.) and the samples harvested and filtered rapidly through 96 well fiber glass filter plate (Millipore, Billerica, Mass.) that had been presoaked with 100 uL of 50 mM Tris-HCl buffer. Each filter was washed four times with 200 uL of ice-cold wash buffer (10 mM Tris-HCl, 150 mM NaCl, pH 7.4). A Wallac 1450 MicroBeta liquid scintillation counter (Perkin Elmer, Boston, Mass.) was used to quantitate the bound radioactivity.
Nonspecific binding was determined from samples that contained 10 uM of cold haloperidol.
The binding affinity, Ki values was calculated using the method of Cheng and Prusoff.

Sigma-1 receptor = Sigma-1 receptor competitive radioligand binding assay; settings: read-out: Sigma-1 Receptor Affinity, Ki
Experimental: Radioligand binding assays for Sigma-1 receptors and Sigma-2 receptors were carried out by a commercial contract research organization. For Sigma-1 binding, various concentrations of test compounds from 100 μM to 1 nM were used to displace 8 nM [^3H](+)pentazocine from endogenous receptors on Jurkat cell membranes (Ganapathy M E et al. 1991, J Pharmacol. Exp. Ther. 289:251-260). 10 μM Haloperidol was used to define non-specific binding. […] 10 μM Haloperidol was used to define non-specific binding. Reactions were terminated by rapid filtration through Whatman GF/C filters using a Brandel 12R cell harvester followed by two washes with ice-cold buffer. Radioactivity on the dried filter discs was measured using a liquid scintillation analyzer (Tri-Carb 2900TR; PerkinElmer Life and Analytical Sciences). The displacement curves were plotted and the Ki values of the test ligands for the receptor subtypes were determined using GraphPad Prism (GraphPad Software Inc., San Diego, Calif.). The percentage specific binding was determined by dividing the difference between total bound (disintegrations per minute) and nonspecific bound (disintegrations per minute) by the total bound (disintegrations per minute).

Row | Structure (SMILES) | pEC50 [1] | pIC50 (potassium channel hERG) | Mouse liver microsomes, MLM t½ [2] | neuronal phenotype (neuronal cultures) | pKi (Sigma-2 receptor) | pKi (Sigma-1 receptor)
1 | CC(C)(CCc1ccc(O)c(OC(F)(F)F)c1)N1Cc2cccc(C(=O)O)c2C1 [compound 56] | 6.52 | 4.31 | 617 min | Weak and Antagonist | 5.00 | 5.00
2 | COc1cc(CC[C@@H](C)N2Cc3ccc(F)cc3C2)ccc1OCCO [compound 30] | 6.52 | 5.33 | 126 min | Antagonist | 6.04 | 6.66
3 | C[C@H](CCc1ccc(Cl)c(Cl)c1)N1Cc2cc3c(cc2C1)OCO3 [compound 10] | 6.30 | 4.39 | 8 min | Antagonist | 8.30 | 8.85
4 | C[C@H](CCc1ccc(Cl)c(Cl)c1)N1Cc2ccc3ccccc3c2C1 [compound 19] | 6.57 | 4.01 | 25 min | Weak | 8.74 | 7.16
5 | C[C@H](CCc1ccc(O)c(OC(C)(C)C)c1)N1Cc2c(F)ccc(F)c2C1 [60A] | < 4.70 | 4.00 | 5 min | Antagonist | 5.80 | 6.39
6 | CC(C)Oc1cc(CCC(C)(C)N2Cc3cccc(F)c3C2)ccc1O [compound 28] | 7.10 to 7.15 | 5.02 | 4 min | Antagonist | 7.96 | 6.92
7 | COc1cc(CC[C@@H](C)N2Cc3cccc(S(C)(=O)=O)c3C2)ccc1O [compound 65] |  | 4.59 | 41 min | Neuroactive | 6.72 | 5.89
8 | COc1cc(CCC(C)(C)N2Cc3cccc(C(=O)NCCN(C)C)c3C2)ccc1O [compound 78] | 5.06 | 3.96 | 450 min | Neuroactive | 5.00 | 5.00
9 | C[C@H](CCc1ccc(F)cc1)N1Cc2cc3c(cc2C1)OCO3 [compound 23] | > 6.60 | 6.43 | 5 min | Antagonist | 7.89 | 7.80
10 | COc1cc(CCC(C)(C)N2Cc3ccc(F)cc3C2)ccc1OCCO [compound 45] | < 4.70 | 6.66 | 96 min | Inactive | 6.72 | 5.55
11 | COc1cc2c(cc1OC)CN([C@@H](C)CCc1ccc(Cl)c(Cl)c1)C2 [compound 20] | 6.22 to 7.17 | 6.18 | 43 min |  | 9.17 | 9.24
12 | COc1cc(CCC(C)(C)N2Cc3cccc(F)c3C2)ccc1O [compound 53] | < 4.70 | 5.55 | 21 min | Inactive | 7.77 | 6.96
13 | CC(C)(C)Oc1cc(CCC(C)(C)N2Cc3c(F)ccc(F)c3C2)ccc1O [compound 74] | 6.52 | 4.00 | 21 min | Antagonist | 6.26 | 5.64
14 | CC(C)Oc1cc(CCC(C)(C)N2Cc3ccc(S(C)(=O)=O)cc3C2)ccc1O [compound 70] |  | 5.51 | 79 min | Inactive | 8.05 | 7.30
15 | CC(C)(CCc1ccc(O)c(OC(F)(F)F)c1)N1Cc2cccc(S(C)(=O)=O)c2C1 [compound 67] |  | 4.36 | 39 min | Antagonist | 8.09 | 7.26
16 | CN(C)C(=O)c1cccc2c1CN(C(C)(C)CCc1ccc(O)c(OC(C)(C)C)c1)C2 [compound 59] |  | 4.74 | 8 min | Inactive | 7.24 | 5.00
17 | COCCNC(=O)c1cccc2c1CN(C(C)(C)CCc1ccc(O)c(OC)c1)C2 [compound 84] | 4.00 | 5.18 | 163 min |  | 5.00 | 5.00
18 | CC(C)(C)Oc1cc(CCC(C)(C)N2Cc3cccc(S(C)(=O)=O)c3C2)ccc1O [compound 66] |  | 4.72 | 10 min | Inactive | 8.59 | 6.89
19 | COc1cc(CCC(C)(C)N2Cc3cccc(S(C)(=O)=O)c3C2)ccc1O [compound 64] |  | 4.70 | 52 min | Inactive | 8.07 | 6.74
20 | C[C@H](CCc1ccc(OC(=O)N(C)C)c(OC(F)(F)F)c1)N1Cc2ccc(F)cc2C1 [compound 43] |  | 6.17 | 5 min |  | 6.85 | 6.42
21 | COc1cc(CCC(C)(C)N2Cc3ccc(F)cc3C2)ccc1OC(=O)N(C)C [compound 50] |  | 5.36 | 33 min | weak and antagonist | 7.43 | 6.12
22 | COCCN(C)C(=O)c1cccc2c1CN(C(C)(C)CCc1ccc(O)c(OC)c1)C2 [compound 86] |  | 5.29 | 19 min |  | 5.00 | 5.00
23 | CC(C)Oc1ccc(CC[C@@H](C)N2Cc3cc4c(cc3C2)OCO4)cc1OC(C)C [compound 40] |  | 6.46 | 6 min |  | 8.05 | 8.11
24 | C[C@H](CCc1ccc(O)c(OC(C)(C)C)c1)N1Cc2ccc(S(C)(=O)=O)cc2C1 [compound 63] |  | 4.96 | 31 min | Inactive | 6.42 | 7.77
25 | COc1cc(CC[C@@H](C)N2Cc3cccc(F)c3C2)ccc1OCCO [compound 51] |  | 5.92 | 66 min | Neuroactive | 6.10 | 7.11
26 | COC[C@H](CCc1ccc(Cl)c(Cl)c1)N1Cc2ccc(F)cc2C1 [compound 46] |  | 5.80 | 5 min | Inactive | 6.80 | 7.03
27 | CC(C)(CCc1ccc(O)c(OC(F)(F)F)c1)N1Cc2c(F)ccc(F)c2C1 [compound 55] |  | 4.00 | 34 min |  | 6.51 | 6.44
28 | COc1cc(CCC(C)(C)N2Cc3cccc(F)c3C2)ccc1OCCO [compound 44] |  | 7.00 | 29 min | Antagonist | 6.85 | 5.89
29 | CC(C)Oc1cc(CC[C@@H](C)N2Cc3ccc(S(C)(=O)=O)cc3C2)ccc1O [compound 69] |  | 5.02 | 75 min | Inactive | 7.12 | 7.57
